Measured values taken from publication PMC9653751, “Chemical Composition and Antioxidant, Antimicrobial, and Anti-Inflammatory Properties of Origanum compactum Benth Essential Oils from Two Regions: In Vitro and In Vivo Evidence and In Silico Molecular Investigations” (Molecules, 2022).

Biological target: T1, Tyrosinase
T1 construct: gene PPO3
Assay: tyrosinase inhibition assay, details only by reference
Assay type: biochemical
Conditions: substrate and pH not given
Text: tyrosinase inhibition assay, details only by reference on Tyrosinase

Quercetin: 39.62 ± 0.05 µg/mL
Structure (SMILES): O=c1c(O)c(-c2ccc(O)c(O)c2)oc2cc(O)cc(O)c12 [Quercetin]
